Data published in PMC6979384, “Characterization of the plant homeodomain (PHD) reader family for their histone tail interactions” (Epigenetics & Chromatin, 2020).
Where no end group is shown, it is not given here.

How the values were obtained:
Test in all cases: Histone peptide microarray
Format in all cases: binding, human
MORC3 (CW) = conditions: MORC3 (CW), GST-tagged; arrays performed twice, n of 4
Text: (§1) To more comprehensively define the histone interactions of the 31 PHD readers identified from the domain microarray analyses, we probed each on an alternate microarray platform containing a library of 293 synthetic histone peptides with single or combinatorial PTMs (Additional file 2: Figure S4 and Additional file 3: Table S2).
(§2) The 31 GST-tagged PHD readers identified in the PHD finger domain array were expressed and purified as previously. Histone peptide arrays and peptide pulldown assays were conducted as recently described (specifically, the optimized protocol from Petell et al. for the former).
(§3) Supplementary file 13072_2020_328_MOESM3_ESM.xlsx: Additional file 3: Table S2. […] Excel Tab Peptide List is a compiled list of the entire 293 histone peptide library with amino acid sequence ranges. […] Each number corresponds to the peptide number designated in Peptide List. Excel Tab Average Signals is a compiled set of binding data: chromatin reader at 0.5 μM vs. entire 293 peptide library. Data is presented as the average and standard deviation of 4 replicates. The average signals are colored to indicate signal intensity with green being strong and white being weak/low. […] Key: red= stronger relative binding; blue = weaker relative binding. Excel Tab Array info summary is a table summarizing the domains, sequence coverage, array signal range, and noise for each of the GST-tagged readers assayed on the peptide microarrays.

PHF21A = conditions: PHF21A, GST-tagged; arrays performed twice, n of 4
Text: as §1, §2, §3

ING4 = conditions: ING4, GST-tagged; arrays performed twice, n of 4
Text: as §1, §2, §3

KDM5A (3) = conditions: KDM5A (3), GST-tagged; arrays performed twice, n of 4
Text: as §1, §2, §3

PHF2 = conditions: PHF2, GST-tagged; arrays performed twice, n of 4
Text: as §1, §2, §3

AIRE (PP) = conditions: AIRE (PP), GST-tagged; arrays performed twice, n of 4
Text: as §1, §2, §3

CHD4 (PPCC) = conditions: CHD4 (PPCC), GST-tagged; arrays performed twice, n of 4
Text: as §1, §2, §3

CHD5 (PPCC) = conditions: CHD5 (PPCC), GST-tagged; arrays performed twice, n of 4
Text: as §1, §2, §3

KDM4C (TTP) = conditions: KDM4C (TTP), GST-tagged; arrays performed twice, n of 4
Text: as §1, §2, §3

SP140L = conditions: SP140L, GST-tagged; arrays performed twice, n of 4
Text: as §1, §2, §3

TAF3 = conditions: TAF3, GST-tagged; arrays performed twice, n of 4
Text: as §1, §2, §3

TRIM66 (PB) = conditions: TRIM66 (PB), GST-tagged; arrays performed twice, n of 4
Text: as §1, §2, §3

KDM5A (1) = conditions: KDM5A (1), GST-tagged; arrays performed twice, n of 4
Text: as §1, §2, §3

BAZ2B = conditions: BAZ2B, GST-tagged; arrays performed twice, n of 4
Text: as §1, §2, §3

PHF13 = conditions: PHF13, GST-tagged; arrays performed twice, n of 4
Text: as §1, §2, §3

CHD5 (PCC) = conditions: CHD5 (PCC), GST-tagged; arrays performed twice, n of 4
Text: as §1, §2, §3

ING2 = conditions: ING2, GST-tagged; arrays performed twice, n of 4
Text: as §1, §2, §3

KDM5B (1) = conditions: KDM5B (1), GST-tagged; arrays performed twice, n of 4
Text: as §1, §2, §3

PHF8 = conditions: PHF8, GST-tagged; arrays performed twice, n of 4
Text: as §1, §2, §3

PHF23 = conditions: PHF23, GST-tagged; arrays performed twice, n of 4
Text: as §1, §2, §3

ING3 = conditions: ING3, GST-tagged; arrays performed twice, n of 4
Text: as §1, §2, §3

PHRF1 (RP) = conditions: PHRF1 (RP), GST-tagged; arrays performed twice, n of 4
Text: as §1, §2, §3

KDM5B (3) = conditions: KDM5B (3), GST-tagged; arrays performed twice, n of 4
Text: as §1, §2, §3

BPTF (PB) = conditions: BPTF (PB), GST-tagged; arrays performed twice, n of 4
Text: as §1, §2, §3

DIDO1 = conditions: DIDO1, GST-tagged; arrays performed twice, n of 4
Text: as §1, §2, §3

ING5 = conditions: ING5, GST-tagged; arrays performed twice, n of 4
Text: as §1, §2, §3

MLL5 = conditions: MLL5, GST-tagged; arrays performed twice, n of 4
Text: as §1, §2, §3

KDM7A = conditions: KDM7A, GST-tagged; arrays performed twice, n of 4
Text: as §1, §2, §3

DPF2 (PPC2W2) = conditions: DPF2 (PPC2W2), GST-tagged; arrays performed twice, n of 4
Text: as §1, §2, §3

ING1 = conditions: ING1, GST-tagged; arrays performed twice, n of 4
Text: as §1, §2, §3

RAG2 = conditions: RAG2, GST-tagged; arrays performed twice, n of 4
Text: as §1, §2, §3

H2A.Z K4ac + K8ac + K12ac (1-19) (N-ac): H2AZ 1-19 (Ac-AGGKAGKDSGKAKTKAVSR; not fully specified (residue 4); UniProt P0C0S5 2-20, looked up, fragment)
Array Heatmap value (peptide array binding signal) (MORC3 (CW)): 0.4285 | Array Heatmap value (peptide array binding signal) (PHF21A): 0.5429 | Array Heatmap value (peptide array binding signal) (ING4): 0.5392 | Array Heatmap value (peptide array binding signal) (KDM5A (3)): 0.4842 | Array Heatmap value (peptide array binding signal) (PHF2): 0.5309 | Array Heatmap value (peptide array binding signal) (AIRE (PP)): 0.5817 | Array Heatmap value (peptide array binding signal) (CHD4 (PPCC)): 0.6197 | Array Heatmap value (peptide array binding signal) (CHD5 (PPCC)): 0.6452 | Array Heatmap value (peptide array binding signal) (KDM4C (TTP)): 0.565 | Array Heatmap value (peptide array binding signal) (SP140L): 0.395 | Array Heatmap value (peptide array binding signal) (TAF3): 0.3233 | Array Heatmap value (peptide array binding signal) (TRIM66 (PB)): 0.6947 | Array Heatmap value (peptide array binding signal) (KDM5A (1)): 0.5365 | Array Heatmap value (peptide array binding signal) (BAZ2B): 0.5346 | Array Heatmap value (peptide array binding signal) (PHF13): 0.6948 | Array Heatmap value (peptide array binding signal) (CHD5 (PCC)): 0.8638 | Array Heatmap value (peptide array binding signal) (ING2): 0.6161 | Array Heatmap value (peptide array binding signal) (KDM5B (1)): 0.6584 | Array Heatmap value (peptide array binding signal) (PHF8): 0.4227 | Array Heatmap value (peptide array binding signal) (PHF23): 0.5933 | Array Heatmap value (peptide array binding signal) (ING3): 0.5369 | Array Heatmap value (peptide array binding signal) (PHRF1 (RP)): 0.5134 | Array Heatmap value (peptide array binding signal) (KDM5B (3)): 0.5225 | Array Heatmap value (peptide array binding signal) (BPTF (PB)): 0.4048 | Array Heatmap value (peptide array binding signal) (DIDO1): 0.7683 | Array Heatmap value (peptide array binding signal) (ING5): 0.4262 | Array Heatmap value (peptide array binding signal) (MLL5): 0.5838 | Array Heatmap value (peptide array binding signal) (KDM7A): 0.3929 | Array Heatmap value (peptide array binding signal) (DPF2 (PPC2W2)): 0.7519 | Array Heatmap value (peptide array binding signal) (ING1): 0.5984 | Array Heatmap value (peptide array binding signal) (RAG2): 0.271
